Laboratory results reported in patent US20060234909A1, “Compositions and methods for increasing drug efficiency” (priority 2003, published 2006).
Primed or numbered codes have the meaning given here. * marks the point of attachment. 10Ca‑PXL = paclitaxel conjugated at C10 via a carbamate; 10Ca‑PXL″ = paclitaxel attached at C10 via carbamate; PEG(13) = PEG13 linker; Piv = CC(C)(C)C(=O)*; OBn = c1ccc(CO*)cc1

What was measured:
[1] = test system: Normal human foreskin fibroblasts (HFF); settings: read-out: HFF (EC50 Ave) ML; HFF, ML (monolayer)
MCF-7 cells = settings: read-out: MCF7 (EC50 Ave) SA; MCF7, SA (soft agar)
tubulin = assay: Fluorescence-based tubulin polymerization assay (MPA; enhancement for paclitaxel, inhibition for vinblastine); type: biochemical
Summary of the method: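 Tubulin polymerisation was followed by fluorescence (ex 360/em 405 nm) with 1 mg/ml BSA in all assays. For paclitaxel conjugates, glycerol was omitted. Parent drugs and conjugates were tested at 0.75, 1.5, 3 and 10 micromolar final, and values come from the linear range of the dose responses.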

HUVEC = assay: Cytotoxicity assay (monolayer), HUVEC; type: cell-based; settings: ML (monolayer), read-out: HUVEC (EC50 Ave) ML
HT-29 cells = settings: read-out: HT29 (EC50 Ave) SA; HT29, SA (soft agar)
Akt = Akt (Homo sapiens, UniProt P31749); assay: Akt kinase assay (PKLight ATP utilization, substrate phosphorylation as % of parent peptide); type: biochemical; set-up: purchased Upstate (Charlottesville, Va.) 14-276
Chain of Akt (P31749 whole entry): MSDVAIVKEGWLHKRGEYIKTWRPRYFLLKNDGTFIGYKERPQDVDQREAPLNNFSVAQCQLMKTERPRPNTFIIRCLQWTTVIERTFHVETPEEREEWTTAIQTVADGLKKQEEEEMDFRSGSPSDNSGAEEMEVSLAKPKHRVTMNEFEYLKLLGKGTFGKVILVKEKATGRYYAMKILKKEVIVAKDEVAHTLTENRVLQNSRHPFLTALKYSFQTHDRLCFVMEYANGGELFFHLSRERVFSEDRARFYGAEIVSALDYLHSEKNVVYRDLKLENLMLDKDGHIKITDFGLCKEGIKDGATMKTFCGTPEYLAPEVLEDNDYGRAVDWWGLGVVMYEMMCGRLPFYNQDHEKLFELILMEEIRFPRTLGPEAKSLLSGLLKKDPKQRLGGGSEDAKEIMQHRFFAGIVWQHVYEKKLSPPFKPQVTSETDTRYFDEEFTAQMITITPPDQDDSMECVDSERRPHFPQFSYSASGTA
Method: Another test may involve monitoring the consumption of ATP. For example, ATP concentrations at time 0 or after 4 hour incubation may be monitored by luciferase reaction (PKLight kit obtained from Cambrex Corporation, One Meadowlands Plaza, East Rutherford, N.J. 07073), which generate a luminescence readout in the presence of ATP. Assays are initiated by mixing a kinase and a peptide in the presence of 40 μM ATP. After 4 hour of incubation at 30° C., PKLight reagent is added and mixed well, and luminescence readout measured. The rate of peptide phosphorylation is then directly related to the rate of decrease in the observed luminescence. Based on the first test, linkers of appropriate lengths and peptides with an effective amount of kinase activity which may be expected to be retained in the drug conjugate may be found.
Human Src (#14-326) and Akt (#14-276) kinases were purchased from Upstate (Charlottesville, Va.). Kinase reactions were carried out in 50 μl kinase reaction cocktail (25 mM Tris-HCl, pH 7.5, 5 μM β-glycerophosphate, 2 mM DTT, 0.1 mM Na3VO4, 10 mM MgCl2, 1 mg/ml BSA, […], 0.5 to 1.0 units enzyme). Substrates (peptide or drug-peptide conjugate in […]) were added (25, 50 and 100 μM) and the reaction was incubated for 2-5 hours at 30° C. PKLight reagent (23 μl) (Cambrex BioSciences, Rockland, Me.) was mixed with […] of the above kinase reaction and ATP utilization relative to no substrate and no ATP controls was determined by measuring luminescence with a SpectraMax Gemini EM plate reader (Molecular Devices, Sunnyvale, Calif.). Peptide substrates for Src and Akt have been described. For examples, see Lou et al. Letters in Peptide Science, 2, 289-296 (1995); Lou et al. Bioorganic & Medicinal Chemistry, 4, 677-682 (1996); Alessi et al. FEBS Letters, 399, 333-338 (1996). Substrate phosphorylation potential was determined from the linear portion of the substrate concentration dose response as a percentage of the activity observed with the parent peptide used for drug conjugation.

[2] = test system: HT-29 colorectal carcinoma; assay: Cytotoxicity assay (monolayer), HT-29; type: cell-based; settings: HT29, ML (monolayer); read-out: HT29 (EC50 Ave) ML;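 also: monolayer cultures tested in triplicate, compound exposure for three days against DMSO vehicle controls, EC50 fitted from dose-response curves and averaged across all tests and lots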
MCF-7 breast carcinoma = assay: Cytotoxicity assay (monolayer), MCF-7; type: cell-based; settings: MCF7, ML (monolayer); read-out: MCF7 (EC50 Ave) ML;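 also: cells treated 72 h with 6-8 compound doses versus DMSO vehicle controls, EC50 fitted by 4-parameter dose-response curves, averaged across all tests and lots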

Substance | EC50 [1] [nM] | EC50 (MCF-7 cells) [nM] | Ave. MPA Act. (tubulin) | EC50 (HUVEC) [nM] | EC50 (HT-29 cells) [nM] | Ave. Akt Kinase Act. (Akt) | EC50 [2] [nM] | EC50 (MCF-7 breast carcinoma) [nM]
Ac-RPRTSSF-PEG(13)-10Ca-PXL (N-acetyl; PEG(13) linker; paclitaxel conjugate) | > 100 | > 100 | C (C>80) | > 100 | 20 to 100 | C (C>40) | > 100 | > 100
BOC-RPRTSSF-PEG(13)-10Ca-PXL (N-BOC; PEG(13) linker; paclitaxel conjugate) | 20 to 100 |  | C (C>80) | > 100 | > 100 | C (C>40) |  | 
CBz-GRPRTSSFAE(Bzl)G-3Am-VBL | 20 to 100 | 20 to 100 | B (B=50-80) | < 20 | 20 to 100 | C (C>40) | 20 to 100 | 20 to 100
CBz-RPRTSSF-PEG(13)-10Ca-PXL (N-CBz; PEG(13) linker; paclitaxel conjugate) | > 100 | 20 to 100 | C (C>80) | > 100 | 20 to 100 | C (C>40) | 20 to 100 | > 100
CBz-RPRTSSF-PEG(13)-10Ca-PXL x (N-CBz; PEG(13) linker; paclitaxel conjugate; salt) | > 100 | > 100 | C (C>80) | > 100 | > 100 | C (C>40) | > 100 | > 100
Pv-GRPRAAAFAEG-PEG(13)-10Ca-PXL (Piv-GRPRAAAFAEG-{PEG(13)-10Ca‑PXL}; also: 2 TFA salt) | > 100 | 20 to 100 | C (C>80) | > 100 | 20 to 100 | C (C>40) | > 100 | > 100
Pv-GRPRTSSFAE(Bzl)G-PEG(13)-10Ca-PXL (Piv-GRPRTSSFAE(OBn)G-{PEG(13)-10Ca‑PXL″}) | > 100 | > 100 | C (C>80) | > 100 | > 100 | C (C>40) | > 100 | > 100
